Measured values as given in PMC2862773 (International journal of biological macromolecules, 2010).
“Also recorded” adds a separate entry of the source.

How the values were obtained:
[1] = target: E. coli ATP synthase (purified F1 or membrane bound F1Fo) (Escherichia coli, UniProt P0ABA6+P0ABB0+P0ABB4); format: biochemical; conditions: for Residual ATPase Activity (%): left over ATPase activity at maximal inhibition
[2] = test system: E. coli strain pBWU13.4/DK8; experiment: Growth yield in limiting glucose medium in presence of bioflavonoid compounds; format: cell-based, Escherichia coli; conditions: OD595 after ~20 hours growth at 37 °C; control 100, null 45
[3] = target: E. coli ATP synthase (purified F1 or membrane bound enzyme) (Escherichia coli, UniProt P0ABA6+P0ABB0+P0ABB4); experiment: Reversal of ATPase inhibition by dilution or centrifuge columns; format: biochemical; conditions: dilution to non-inhibitory concentration or twice through centrifuge columns
[4] = test system: rat brain and liver mitochondrial F1Fo ATP synthase; conditions: cited from earlier work
[5] = test system: cultured human lymphoblastoid and other mammalian cells; conditions: not in ρ° cells; cited from earlier work
[6] = test system: E. coli enzyme mutants αR283A/Q, αE284A/Q, βS263A/Q, γT273A/Q, γQ274A/K, γT277A/Q, γE278A/Q; experiment: Inhibition of polyphenol binding pocket mutants of E. coli enzyme; format: biochemical, Escherichia coli; conditions: unpublished results of the authors
E. coli ATP synthase = conditions: cited from earlier work
[7] = test system: androgen-responsive human prostate carcinoma cells (LNCaP); conditions: concentrations of up to 50μmol/L/day; cited from earlier work
[8] = test system: normal human prostate cells; conditions: at similar concentrations (up to 50μmol/L/day); cited from earlier work
[9] = purified F1 or membrane bound F1Fo
[10] = mitochondrial F1Fo ATP synthase

Oc1cc(O)c2c(c1)O[C@H](c1ccc(O)c(O)c1)[C@H](O)C2 [(−)-Epicatechin]
Residual ATPase Activity (%) ([1]; 60 min preincubation): 0%
Extent of inhibition of ATPase activity, in words [1, 9]: complete inhibition
Growth yield in limiting glucose (%) [2]: 53%

NC12CC3CC(CC(C3)C1)C2 [Amantadin, reference compound]
Residual ATPase Activity (%) ([1]; 60 min preincubation): 0%
Extent of inhibition of ATPase activity, in words [1, 9]: complete inhibition
Inhibition of ATPase activity (maximal extent) ([1]; purified F1 or membrane bound F1Fo, 60 min preincubation): ~ 100%
Growth yield in limiting glucose (%) [2]: 51%

O=c1cc(-c2ccc(O)cc2)oc2cc(O)cc(O)c12 [Apigenin]
Residual ATPase Activity (%) ([1]; 60 min preincubation): 60%
Reversibility of inhibition [3]: reversible
IC50 [4, 10]: ~100 µM

O=c1cc(-c2ccccc2)oc2cc(O)c(O)c(O)c12 [Baicalein]
Residual ATPase Activity (%) ([1]; 60 min preincubation): 0%
Extent of inhibition of ATPase activity, in words [1, 9]: complete inhibition
Growth yield in limiting glucose (%) [2]: 48%

O=c1cc(-c2ccccc2)oc2cc(O)cc(O)c12 [Chrysin]
Residual ATPase Activity (%) ([1]; 60 min preincubation): 40%
Growth yield in limiting glucose (%) [2]: 73%

O=c1c(-c2ccc(O)cc2)coc2cc(O)ccc12 [Daidzein]
Extent of inhibition of ATPase activity, in words [1, 9]: insignificant
Growth yield in limiting glucose (%) [2]: 96%

COc1ccc(-c2cc(=O)c3c(O)cc(O[C@@H]4O[C@H](CO[C@@H]5O[C@@H](C)[C@H](O)[C@@H](O)[C@H]5O)[C@@H](O)[C@H](O)[C@H]4O)cc3o2)cc1O [Diosmin]
Extent of inhibition of ATPase activity, in words [1, 9]: partial inhibition

O=c1c(O)c(-c2ccccc2)oc2cc(O)cc(O)c12 [Galangin]
Extent of inhibition of ATPase activity, in words [1, 9]: insignificant; also recorded: no inhibition
Growth yield in limiting glucose (%) [2]: 93%

O=c1c(-c2ccc(O)cc2)coc2cc(O)cc(O)c12 [Genistein]
Growth yield in limiting glucose (%) [2]: 87%

COc1ccc([C@@H]2CC(=O)c3c(O)cc(O[C@@H]4O[C@H](CO[C@@H]5O[C@@H](C)[C@H](O)[C@@H](O)[C@H]5O)[C@@H](O)[C@H](O)[C@H]4O)cc3O2)cc1O [Hesperidin]
Residual ATPase Activity (%) ([1]; 60 min preincubation): 40%
Extent of inhibition of ATPase activity, in words [1, 9]: partial inhibition
Growth yield in limiting glucose (%) [2]: 76%

O=c1cc(-c2ccc(O)c(O)c2)oc2cc(O)cc(O)c12 [Luteolin]
Extent of inhibition of ATPase activity, in words [1, 9]: insignificant
Growth yield in limiting glucose (%) [2]: 87%

O=c1c(O)c(-c2ccc(O)cc2O)oc2cc(O)cc(O)c12 [Morin hydrate]
Residual ATPase Activity (%) ([1]; 60 min preincubation): 0%
Extent of inhibition of ATPase activity, in words [1, 9]: complete inhibition
Growth yield in limiting glucose (%) [2]: 46%

CC[C@H]1/C=C/C=C/C[C@@H](C)[C@H](O)[C@@](C)(O)C(=O)[C@@H](C)[C@H](O)[C@@H](C)C(=O)[C@@H](C)[C@H](O)[C@@H](C)/C=C/C(=O)O[C@@H]2[C@H](C)[C@H](CC1)O[C@]1(CC[C@H](C)[C@H](C[C@@H](C)O)O1)[C@H]2C [Oligomycin]
Time to apoptotic suicide response [5]: 12 to 18 h

O=c1c(O)c(-c2ccc(O)c(O)c2)oc2cc(O)cc(O)c12 [Quercetin]
Inhibition of mutant enzymes [6]: loss of inhibition
IC50 (E. coli ATP synthase; E. coli ATP synthase): ~33 µM
Reversibility of inhibition (E. coli ATP synthase; binds non-covalently at the polyphenol binding site): reversible
Inhibition of E. coli ATP synthase (E. coli ATP synthase): ~ 80%
IC50 [4, 10]: 55 to 65 µM

CC(N)C12CC3CC(CC(C3)C1)C2 (stereo not drawn) [Rimantadine, reference compound]
Residual ATPase Activity (%) ([1]; 60 min preincubation): 0%
Extent of inhibition of ATPase activity, in words [1, 9]: complete inhibition
Growth yield in limiting glucose (%) [2]: 52%

C[C@@H]1O[C@@H](OC[C@H]2O[C@@H](Oc3c(-c4ccc(O)c(O)c4)oc4cc(O)cc(O)c4c3=O)[C@H](O)[C@@H](O)[C@@H]2O)[C@H](O)[C@H](O)[C@H]1O [Rutin hydrate]
Growth yield in limiting glucose (%) [2]: 87%

COc1cc(C2Oc3cc([C@H]4Oc5cc(O)cc(O)c5C(=O)[C@@H]4O)ccc3OC2CO)ccc1O (stereo partly drawn) [Silibinin]
Residual ATPase Activity (%) ([1]; 60 min preincubation): 0%
Extent of inhibition of ATPase activity, in words [1, 9]: complete inhibition
Growth yield in limiting glucose (%) [2]: 47%

O=c1c(-c2ccc(O)cc2)coc2cc(O[C@@H]3O[C@H](CO)[C@@H](O)[C@H](O)[C@H]3O)cc(O)c12 [genistin]
Inhibition of ATPase activity ([4]; up to 140 μM): did not inhibit

Oc1cc(O)cc(/C=C/c2ccc(O)c(O)c2)c1 [piceatannol]
Inhibition of mutant enzymes [6]: loss of inhibition

Oc1ccc(/C=C/c2cc(O)cc(O)c2)cc1 [resveratrol]
Inhibition of mutant enzymes [6]: loss of inhibition
Time to inhibition [4, 10]: 1 to 2 min
Effect on apoptosis [7]: stimulation of apoptosis
Effect on rate of cell death [8]: no effect
